Assay [1] has as its target T1, truncated human 11β-HSD-1 enzyme (24-287AA) (Homo sapiens, UniProt P28845).
T1 construct: truncated human 11β-HSD-1 enzyme (24-287AA); made in house; host or cells: E. coli (lysate)
The experiment in a line: Human 11β-HSD-1 enzymatic SPA assay. Type of assay: biochemical. How it is done: (§1) The ability of test compounds to inhibit human 11β-HSD-1 enzymatic activity in vitro was evaluated in a Scintillation Proximity Assay (SPA). […] The reaction was stopped by adding a non-specific 11β-HSD inhibitor, 18β-glycyrrhetinic acid. The tritiated cortisol was captured by a mixture of an anti-cortisol monoclonal antibody and SPA beads coated with anti-mouse antibodies. The reaction plate was shaken at room temperature and the radioactivity bound to SPA beads was then measured on a β-scintillation counter. The 11β-HSD-1 assay was carried out in 96-well microtiter plates in a total volume of 220 μl. […] In order to drive the reaction in the forward direction, 1 mM G-6-P was also added. Solid compound was dissolved in DMSO to make a 10 mM stock followed by a subsequent 10-fold dilution with 3% DMSO in Tris/EDTA buffer (pH 7.4). 22 μl of titrated compounds was then added in triplicate to the substrate. Reactions were initiated by the addition of 10 μl of 0.1 mg/ml E. coli lysates overexpressing 11β-HSD-1 enzyme. After shaking and incubating plates for 30 minutes at room temperature, reactions were stopped by adding 10 μl of 1 mM glycyrrhetinic acid. The product, tritiated cortisol, was captured by adding 10 μl of 1 μM monoclonal anti-cortisol antibodies and 100 μl SPA beads coated with anti-mouse antibodies. After shaking for 30 minutes, plates were read on a liquid scintillation counter Topcount. Percent inhibition was calculated based on the background and the maximal signal. Wells that contained substrate without compound or enzyme were used as the background, while the wells that contained substrate and enzyme without any compound were considered as maximal signal. Percent of inhibition of each compound was calculated relative to the maximal signal and IC50 curves were generated. This assay was applied to 11β-HSD-2 as well, whereby tritiated cortisol and NAD^+ were used as substrate and cofactor, respectively.

In the next assay the target is T2, human 11β-HSD-2 (Homo sapiens, UniProt P80365).
T2 sequence (P80365 1-405): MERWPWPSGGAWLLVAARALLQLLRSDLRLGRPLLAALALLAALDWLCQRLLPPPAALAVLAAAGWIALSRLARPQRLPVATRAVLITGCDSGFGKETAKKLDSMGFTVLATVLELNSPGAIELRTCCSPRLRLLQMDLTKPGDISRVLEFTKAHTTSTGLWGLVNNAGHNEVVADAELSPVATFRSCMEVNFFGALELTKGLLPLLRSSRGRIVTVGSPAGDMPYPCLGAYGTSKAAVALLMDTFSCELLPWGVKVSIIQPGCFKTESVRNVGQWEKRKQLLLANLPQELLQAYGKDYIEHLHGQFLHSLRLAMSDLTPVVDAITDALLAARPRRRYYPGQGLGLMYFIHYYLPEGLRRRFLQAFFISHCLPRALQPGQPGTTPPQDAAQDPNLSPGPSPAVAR
Nature of the assay: Human 11β-HSD-2 enzymatic SPA assay. The assay is classed as biochemical. To be noted: human enzyme, SPA. How it is done:
as §1

Read-outs that look alike come from different tables or passages of the source.

T1 sequence (P28845 24-287): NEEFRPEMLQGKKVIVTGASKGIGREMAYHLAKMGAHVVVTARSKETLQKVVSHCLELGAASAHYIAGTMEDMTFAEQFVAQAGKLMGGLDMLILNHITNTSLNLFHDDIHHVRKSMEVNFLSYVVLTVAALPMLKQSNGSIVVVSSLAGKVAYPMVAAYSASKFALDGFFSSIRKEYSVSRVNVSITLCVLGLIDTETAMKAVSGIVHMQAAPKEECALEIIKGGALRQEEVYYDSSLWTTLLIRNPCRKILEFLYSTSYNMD

A word on the IC50: it is the concentration needed to halve the response being measured. A lower IC50 goes with greater potency in that assay. Consider `CC(C)(Oc1ccc(-n2cccn2)cn1)C(=O)N[C@@H]1[C@@H]2C[C@@H]3C[C@H]1C[C@@](C(N)=O)(C3)C2` [(E)-4-[(2-methyl-2-{[5-(1H-pyrazol-1-yl)pyridin-2-yl]oxy}propanoyl)amino]adamantine-1-carboxamide], for which the IC50 in assay [1] (human enzyme, SPA) is 30 nM; on human 11β-HSD-2 it was over 100000 nM.

As for `CCN(CC)S(=O)(=O)c1cc(Cl)ccc1OC(C)(C)C(=O)NC1C2CC3CC1CC(C(N)=O)(C3)C2` (centres unmarked) [(E)-4-[(2-{4-chloro-2-[(diethylamino)sulfonyl]phenoxy}-2-methylpropanoyl)amino]adamantane-1-carboxamide], the IC50 came out at 68 nM in assay [1] (human enzyme, SPA) and 65000 nM against human 11β-HSD-2.

As for `NC(=O)OC12CC3CC(C1)C(NC(=O)CN1CCN(c4ccc(C(F)(F)F)cn4)CC1)C(C3)C2` (centres unmarked) [(E)-4-[({4-[5-(trifluoromethyl)pyridin-2-yl]piperazin-1-yl}acetyl)amino]-1-adamantyl carbamate], the IC50 in assay [1] (human enzyme, SPA) was 150 nM; on human 11β-HSD-2, over 10000 nM.

`O=C(O)C12CC3CC(C1)C(NC(=O)C1(c4ccc(Cl)cc4)CCC1)C(C3)C2` (centres unmarked) [(E)-4-{[1-(4-chloro-phenyl)-cyclobutanecarbonyl]-amino}-adamantane-1-carboxylic acid]: the IC50 was 43 nM in assay [1] (human enzyme, SPA) and over 10000 nM on human 11β-HSD-2.

`CC(C)(Oc1ccc(O)cc1)C(=O)N[C@@H]1[C@@H]2C[C@@H]3C[C@H]1C[C@@](C(N)=O)(C3)C2` [(E)-4-{[2-(4-hydroxyphenoxy)-2-methylpropanoyl]amino}adamantane-1-carboxamide]: the IC50 in assay [1] (human enzyme, SPA) was determined as 18 nM; on human 11β-HSD-2 it was 35000 nM.

For the molecule `CC(C)(C(=O)NC1C2CC3CC1CC(C(N)=O)(C3)C2)N1CCN(c2cnccn2)CC1` (centres unmarked) [(E)-4-{[2-methyl-2-(4-pyrazin-2-ylpiperazin-1-yl)propanoyl]amino}adamantane-1-carboxamide], the IC50 in assay [1] (human enzyme, SPA) was 35 nM; at human 11β-HSD-2 it was over 30000 nM.

Regarding `CC(C)(C(=O)N[C@@H]1[C@@H]2C[C@@H]3C[C@H]1C[C@@](C(N)=O)(C3)C2)N1CCN(c2ccccn2)CC1` [(E)-4-{[2-methyl-2-(4-pyridin-2-ylpiperazin-1-yl)propanoyl]amino}adamantane-1-carboxamide], the IC50 in assay [1] (human enzyme, SPA) was 37 nM; at human 11β-HSD-2, over 30000 nM.

As to `CC(C)(Oc1ccc(Cl)cc1)C(=O)N[C@@H]1[C@@H]2C[C@@H]3C[C@H]1C[C@@](CC(N)=O)(C3)C2` [N-[(E)-5-(2-amino-2-oxoethyl)-2-adamantyl]-2-(4-chlorophenoxy)-2-methylpropanamide], the IC50 in assay [1] (human enzyme, SPA) amounted to 43 nM; against human 11β-HSD-2, 21000 nM.

In the case of `CC(C)(Oc1ccc(F)cc1Cl)C(=O)N[C@@H]1[C@@H]2C[C@@H]3C[C@H]1C[C@@](S(N)(=O)=O)(C3)C2` [N-[(E)-5-(aminosulfonyl)-2-adamantyl]-2-(2-chloro-4-fluorophenoxy)-2-methyl-propanamide], the IC50 in assay [1] (human enzyme, SPA) was 89 nM; against human 11β-HSD-2 it was over 100000 nM.

Take `O=C(CN1CCN(c2ccc(C(F)(F)F)cn2)CC1)NC1C2CC3CC1CC(F)(C3)C2` (centres unmarked) [N-[(E)-5-fluoro-2-adamantyl]-2-{4-[5-(trifluoromethyl)pyridin-2-yl]piperazin-1-yl}acetamide]: the figures for the IC50 (in assay [1]; against human 11β-HSD-2) were 140 nM and over 10000 nM, respectively.

For the molecule `CC(C(=O)NC1C2CC3CC1CC(NS(C)(=O)=O)(C3)C2)N1CCN(c2ccc(C(F)(F)F)cn2)CC1` (centres unmarked) [N-{(E)-5-[(methylsulfonyl)amino]-2-adamantyl}-2-{4-[5-(trifluoromethyl)pyridin-2-yl]piperazin-1-yl}propanamide], the IC50 in assay [1] (human enzyme, SPA) is 67 nM; on human 11β-HSD-2, over 30000 nM.

Consider `O=C(CN1CCN(c2ccc(C(F)(F)F)cn2)CC1)N[C@H]1[C@@H]2C[C@@H]3C[C@H]1C[C@@](F)(C3)C2` [N—[(Z)-5-fluoro-2-adamantyl]-2-{4-[5-(trifluoromethyl)pyridin-2-yl]piperazin-1-yl}acetamide], for which the half-maximal inhibitory concentration (IC50) in assay [1] was 82 nM; on human 11β-HSD-2, over 10000 nM.

For `CC(C)(C(=O)N[C@@H]1[C@@H]2C[C@@H]3C[C@H]1C[C@@](CC(=O)O)(C3)C2)N1CCN(c2ccc(C(F)(F)F)cn2)CC1` [{(E)-4-[(2-methyl-2-{4-[5-(trifluoromethyl)pyridin-2-yl]piperazin-1-yl}propanoyl)amino]-1-adamantyl}acetic acid], the IC50 in assay [1] (human enzyme, SPA) was 80 nM; on human 11β-HSD-2, over 10000 nM.
